# Reference: patent publication US9944659B2, “Boron-containing diacylhydrazine compounds” (Intrexon Corporation, priority 2014, dated 2018)
# Like-named read-outs stand apart in the source and are kept apart here.
# Experiment: Solubility (24 hrs equilibration at RT, HPLC-UV)
# Format: physicochemical
# Conditions: thermodynamic from solid, target concentration 5 mg/ml, 24 hrs at RT
# Protocol: Representative Compounds of the Disclosure were tested for solubity (Table 4) as follows:
# 0.1 M Phosphate Buffer Ionic Strength ˜0.15M
# Simulated Intestinal Fluid pH 7.5 (USP)
# Weigh ˜2 mgs of compound into clean glass 1 dram vails.
# Add ˜[…] of appropriate media to vial to yield a target concentration of 5 mg/ml.
# Place vials on a rotating shaker and equilibrate for 24 hrs. at RT.
# Remove supernatant to microcentrifuge tubes and centrifuge at 1300 rpm for 30 minutes.
# Remove an aliquot of supernatant, dilute accordingly with acetonitrile.
# Assay Samples by HPLC-UV Against Standards.
# [1] = biorelevant, Simulated Intestinal Fluid pH 7.5 (USP), read-out: Solubility SIF
# [2] = pH 7.4, aqueous buffer, 0.1 M Phosphate Buffer, read-out: Solubility pH 7.4
SMILES,solubility at 24 h [1] [µg/mL],solubility at 24 h [2] [µg/mL]
"COc1cccc(C(=O)NN(C(=O)c2ccc3c(c2)B(O)NC3)C(C)(C)C)c1C [compound 9, N-(tert-butyl)-1-hydroxy-N′-(3-methoxy-2-methylbenzoyl)-2,3-dihydro-1H-benzo[c][1,2]azaborole-6-carbohydrazide]",4510,4920
"Cc1cc(C)cc(C(=O)NNC(=O)c2ccc3c(c2)N=C(C(F)(F)F)OB3O)c1 [compound 6, N′-(3,5-dimethylbenzoyl)-1-hydroxy-3-(trifluoromethyl)-1H-benzo[c][1,5,2]oxazaborinine-6-carbohydrazide]",0.4,1.7
"COc1cccc(C(=O)NN(C(=O)c2ccc(B(O)O)c(NS(=O)(=O)c3ccccc3)c2)C(C)(C)C)c1C [compound 16, (4-(1-(tert-butyl)-2-(3-methoxy-2-methylbenzoyl)hydrazine-1-carbonyl)-2-(phenylsulfonamido)phenyl)boronic acid]",24.1,6.9
"Cc1cc(C)cc(C(=O)N(NC(=O)c2ccc3c(c2)NC(=S)N(c2ccccc2)B3O)C(C)(C)C)c1 [compound 4, N′-(tert-butyl)-N′-(3,5-dimethylbenzoyl)-1-hydroxy-2-phenyl-3-thioxo-1,2,3,4-tetrahydrobenzo[c][1,5,2]diazaborinine-6-carbohydrazide]",2640,3560
"COc1cccc(C(=O)NN(C(=O)c2ccc3c(c2)NC(=O)N(c2ccccc2)B3O)C(C)(C)C)c1C [compound 15, N-(tert-butyl)-1-hydroxy-N′-(3-methoxy-2-methylbenzoyl)-3-oxo-2-phenyl-1,2,3,4-tetrahydrobenzo[c][1,5,2]diazaborinine-6-carbohydrazide]",417,540
"COc1cccc(C(=O)NN(C(=O)c2ccc3c(c2)B(O)OC3)C(C)(C)C)c1C [compound 8, N-(tert-butyl)-1-hydroxy-N′-(3-methoxy-2-methylbenzoyl)-1,3-dihydrobenzo[c][1,2]oxaborole-6-carbohydrazide]",121,42.3
"COc1cccc(C(=O)NN(C(=O)c2ccc3c(c2)N=COB3O)C(C)(C)C)c1C [compound 13, N-(tert-butyl)-1-hydroxy-N′-(3-methoxy-2-methylbenzoyl)-1H-benzo[c][1,5,2]oxazaborinine-6-carbohydrazide]",334,221
"COc1cccc(C(=O)NN(C(=O)c2ccc3c(c2)N=C(C)OB3O)C(C)(C)C)c1C [compound 12, N-(tert-butyl)-1-hydroxy-N′-(3-methoxy-2-methylbenzoyl)-3-methyl-1H-benzo[c][1,5,2]oxazaborinine-6-carbohydrazide]",3800,3760
"Cc1cc(C)cc(C(=O)N(NC(=O)c2ccc(B(O)O)c(NS(=O)(=O)c3ccccc3)c2)C(C)(C)C)c1 [compound 7, (4-(2-(tert-butyl)-2-(3,5-dimethylbenzoyl)hydrazine-1-carbonyl)-2-(phenylsulfonamido)phenyl)boronic acid]",10.7,4.1

# More lines, now with the values ahead:
solubility at 24 h [1] [µg/mL],solubility at 24 h [2] [µg/mL],SMILES
59.3,0.13,"Cc1cc(C)cc(C(=O)N(NC(=O)c2ccc(B(O)O)c(NCC#N)c2)C(C)(C)C)c1 [compound 17, (4-(2-(tert-butyl)-2-(3,5-dimethylbenzoyl)hydrazine-1-carbonyl)-2-((cyanomethyl)amino)phenyl)boronic acid]"
90.2,39.4,"Cc1cc(C)cc(C(=O)N(NC(=O)c2ccc3c(c2)N=COB3O)C(C)(C)C)c1 [compound 3, N′-(tert-butyl)-N′-(3,5-dimethylbenzoyl)-1-hydroxy-1H-benzo[c][1,5,2]oxazaborinine-6-carbohydrazide]"
3330,2680,"Cc1cc(C)cc(C(=O)N(NC(=O)c2ccc3c(c2)B(O)ON=C3)C(C)(C)C)c1 [compound 20, N′-(tert-butyl)-N′-(3,5-dimethylbenzoyl)-1-hydroxy-1H-benzo[d][1,2,6]oxazaborinine-7-carbohydrazide]"
4650,4700,"Cc1cc(C)cc(C(=O)N(NC(=O)c2ccc(CN(C)C)c(B(O)O)c2)C(C)(C)C)c1 [compound 11, (5-(2-(tert-butyl)-2-(3,5-dimethylbenzoyl)hydrazine-1-carbonyl)-2-((dimethylamino)methyl)phenyl)boronic acid]"
4050,4310,"CC1=Nc2cc(C(=O)NN(C(=O)c3cc(C)cc(C)c3)C(C)(C)C)ccc2B(O)O1 [compound 2, N′-(tert-butyl)-N′-(3,5-dimethylbenzoyl)-1-hydroxy-3-methyl-1H-benzo[c][1,5,2]oxazaborinine-6-carbohydrazide]"
4870,> 5000,"Cc1cc(C)cc(C(=O)N(NC(=O)c2ccc3c(c2)B(O)NC3)C(C)(C)C)c1 [compound 1, N′-(tert-butyl)-N′-(3,5-dimethylbenzoyl)-1-hydroxy-2,3-dihydro-1H-benzo[c][1,2]azaborole-6-carbohydrazide]"
31.4,16.8,"Cc1cc(C)cc(C(=O)N(NC(=O)c2ccc(CC#N)c(B(O)O)c2)C(C)(C)C)c1 [compound 19, (5-(2-(tert-butyl)-2-(3,5-dimethylbenzoyl)hydrazine-1-carbonyl)-2-(cyanomethyl)phenyl)boronic acid]"
492,505,"Cc1cc(C)cc(C(=O)N(NC(=O)c2ccc3c(c2)B(O)NCC3)C(C)(C)C)c1 [compound 18, N′-(tert-butyl)-N′-(3,5-dimethylbenzoyl)-1-hydroxy-1,2,3,4-tetrahydrobenzo[c][1,2]azaborinine-7-carbohydrazide]"
4800,4870,"CNCc1ccc(C(=O)NN(C(=O)c2cc(C)cc(C)c2)C(C)(C)C)cc1B(O)O [compound 10, (5-(2-(tert-butyl)-2-(3,5-dimethylbenzoyl)hydrazine-1-carbonyl)-2-((methylamino)methyl)phenyl)boronic acid]"
